This note sets out measurements from the NIST ThermoML archive (doi:10.1016/j.jct.2004.05.009).

Each structure is given as a SMILES string. ± gives the expanded uncertainty stated by the source.

The conditions of the data set: Liquid.

For the compound `Cl` [hydrogen chloride], the vapor or sublimation pressure (in general, the pressure of vapour in equilibrium with the condensed phase) runs as follows: (159.01 K) 13.79 ± 0.3 kPa; (182.33 K) 72.13 ± 1.2 kPa.
